Measured values published in patent US20150353495A1 (PORTOLA PHARMACEUTICALS, INC., priority 2010, published 2015).

Columns and labels:
Format in all cases: biochemical
JAK1 = biological target: T1, JAK1 (Homo sapiens, UniProt P23458); assay: Z'-LYTE kinase assay JAK1
T1 construct: 5 μl of catalytic domain recombinant Kinase enzyme+Tyr peptide substrate (Invitrogen, CA); purchased Invitrogen
Outline: (§1)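 Catalytic-domain recombinant kinase was incubated with Tyr6 FRET peptide, ATP and compound (1% DMSO final) for 1 h at room temperature. Protease development followed for 1 h, cleaving only non-phosphorylated peptide. Inhibition of phosphorylation was read as coumarin/fluorescein FRET fluorescence.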

JAK2 = biological target: T2, JAK2 (Homo sapiens, UniProt O60674); assay: Z'-LYTE kinase assay JAK2
T2 construct: 5 μl of catalytic domain recombinant Kinase enzyme+Tyr peptide substrate (Invitrogen, CA); purchased Invitrogen
Outline: as §1

JAK3 = biological target: T3, JAK3 (Homo sapiens, UniProt P52333); assay: Z'-LYTE kinase assay JAK3
T3 construct: 5 μl of catalytic domain recombinant Kinase enzyme+Tyr peptide substrate (Invitrogen, CA); purchased Invitrogen
Outline: as §1

TYK2 = biological target: T4, TYK2 (Homo sapiens, UniProt P29597); assay: Z'-LYTE kinase assay TYK2
T4 construct: 5 μl of catalytic domain recombinant Kinase enzyme+Tyr peptide substrate (Invitrogen, CA); purchased Invitrogen
T4 sequence (P29597 897-1176 limits assumed): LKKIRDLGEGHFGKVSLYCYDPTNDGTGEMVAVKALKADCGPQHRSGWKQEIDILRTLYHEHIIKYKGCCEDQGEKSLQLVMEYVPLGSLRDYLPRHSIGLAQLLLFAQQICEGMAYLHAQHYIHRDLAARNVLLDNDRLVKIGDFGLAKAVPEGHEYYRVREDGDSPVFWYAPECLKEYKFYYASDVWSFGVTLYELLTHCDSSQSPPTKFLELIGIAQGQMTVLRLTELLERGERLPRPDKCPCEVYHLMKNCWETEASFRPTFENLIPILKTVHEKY
Description: JAK and TYK2 tyrosine phosphorylation activity is measured using the Z′-LYTE™ Technology developed by Invitrogen Corporation (Carlsbad, Calif.). For JAK1, JAK2 and JAK3 the Z′-LYTE™ Kinase Assay Kit-Tyr6 Peptide (part number PV4122) was used. For TYK2 the Z′-LYTE™ Kinase Assay Kit-Tyr6 Peptide (part number PV3192) was used. The Z′-LYTE™ biochemical assay employs a fluorescence resonance energy transfer (FRET) coupled-enzyme format and is based on the differential sensitivity of phosphorylated and non-phosphorylated peptides to proteolitic cleavage. The assay uses a synthetic peptide substrate that is labelled with a donor fluorophore (coumarin) and an acceptor fluorophore (fluorescein) that make up a FRET pair. In the primary reaction (the Kinase Reaction), the kinase transfers the γ-phosphate of ATP to a single tyrosine residue on the substrate, while the presence of a kinase inhibitor in the primary reaction suppresses phosphorylation. In the secondary reaction (the Development Reaction), a site-specific protease (the Development Reagent) is added. The development buffer quenches the Kinase Reaction, while the protease recognizes and cleaves non-phosphorylated Z′-LYTE™ peptide substrate. Cleavage disrupts FRET between the donor and acceptor fluorophores on the non-phosphoryleted substrate, while uncleaved, phosphorylated substrate maintains FRET.
To test the ability of candidate molecules to inhibit JAK tyrosine phosphorylation activity, molecules are reconstituted in 100% DMSO and serially diluted 1:10 in polypropylene v-bottom microtiter plates. The candidate molecules are then diluted 1:25 into kinase buffer and 2.5 μl transferred into duplicate wells of a 384 well low volume black microtiter assay plate (Corning, USA). The final DMSO concentration in the assay is 1%. The kinase reaction contains 2.5 μl of a candidate molecule, 5 μl of catalytic domain recombinant Kinase enzyme+Tyr peptide substrate (Invitrogen, CA) and 2.5 μl ATP (Invitrogen, CA). The kinase reaction is allowed to procede for 1 hour at room temperature. The protease reaction is initiated by the addition of 5 μl Development Reagent (Invitrogen, CA). After 1 hour incubation at room temperature the fluorescence is measured using a FlexStation plate reader (Molecular Devices, Sunnyvale, Calif.). The reader settings used are as follows: Fluorescence mode, endpoint, top read, excitation 400 nm, emission 445 nm and 520 nm, Auto Cutoff 435 nm and 515 nm, PMT sensitivity high, 6 reads per well Inhibition of JAK kinase activity is calculated as the percent phosphorylation of substrate in the presence of inhibitor compared to the percent phosphorylation of substrate in the absence of inhibitor. IC50's were derived using Xlfit 4.3 (IDBS, UK), 4 parameter logistic model 205: Y=(A+4B-A)/(1+((C/x)AD)))).

T1 sequence (P23458 875-1153 limits assumed): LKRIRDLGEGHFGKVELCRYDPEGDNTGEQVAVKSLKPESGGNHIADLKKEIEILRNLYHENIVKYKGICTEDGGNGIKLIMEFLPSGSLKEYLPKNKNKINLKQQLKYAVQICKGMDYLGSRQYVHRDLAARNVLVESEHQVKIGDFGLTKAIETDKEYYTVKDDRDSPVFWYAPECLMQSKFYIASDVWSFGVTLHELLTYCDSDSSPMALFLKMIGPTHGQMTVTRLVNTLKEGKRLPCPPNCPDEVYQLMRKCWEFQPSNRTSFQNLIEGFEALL
T2 sequence (O60674 849-1124 limits assumed): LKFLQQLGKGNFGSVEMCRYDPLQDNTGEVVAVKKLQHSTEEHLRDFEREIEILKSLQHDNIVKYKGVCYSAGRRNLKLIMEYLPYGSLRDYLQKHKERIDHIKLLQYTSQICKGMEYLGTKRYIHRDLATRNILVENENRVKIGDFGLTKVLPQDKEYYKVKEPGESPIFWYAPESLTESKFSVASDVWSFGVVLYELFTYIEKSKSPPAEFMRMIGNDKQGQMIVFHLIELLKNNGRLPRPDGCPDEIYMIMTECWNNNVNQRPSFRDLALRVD
T3 sequence (P52333 822-1111 limits assumed): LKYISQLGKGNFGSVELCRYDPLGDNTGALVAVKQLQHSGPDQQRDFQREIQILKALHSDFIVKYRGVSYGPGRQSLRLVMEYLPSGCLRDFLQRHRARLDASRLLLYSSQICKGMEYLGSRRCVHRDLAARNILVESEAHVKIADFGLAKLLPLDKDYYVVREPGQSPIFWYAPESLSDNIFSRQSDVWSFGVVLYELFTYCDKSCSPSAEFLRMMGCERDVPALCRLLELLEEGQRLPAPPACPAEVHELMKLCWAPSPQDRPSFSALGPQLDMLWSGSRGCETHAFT

Structure (SMILES)	IC50 (JAK1)	IC50 (JAK2)	IC50 (JAK3)	IC50 (TYK2)
Cc1cc(Nc2cc(NCc3ccccc3)c(C(N)=O)cn2)ccc1C(=O)N1CCOCC1 [Example 447, 4-(benzylamino)-6-(3-methyl-4-(morpholine-4-carbonyl)phenylamino)nicotinamide]	100 to 1000 nM	10 to 100 nM	1 to 10 nM	100 to 1000 nM
Cc1cc(Nc2cc(NCc3ccccc3)c(C(N)=O)cn2)ccc1C(=O)N(C)C [Example 438, 4-(benzylamino)-6-(4-(dimethylcarbamoyl)-3-methylphenylamino)nicotinamide]	100 to 1000 nM	10 to 100 nM	1 to 10 nM	100 to 1000 nM
NC(=O)c1cnc(Nc2cccc(N3CCNCC3)c2)cc1NC1(c2ccccc2)CC1 [Example 367, 4-(1-phenylcyclopropylamino)-6-(3-(piperazin-1-yl)phenylamino)nicotinamide]	> 1000 nM	100 to 1000 nM	10 to 100 nM	> 1000 nM
CC(=O)Nc1cccc(Nc2nc(NC3CCCC3)c(C(N)=O)cc2F)c1 [Example 18, 6-(3-acetamidophenylamino)-2-(cyclopentylamino)-5-fluoronicotinamide]	> 1000 nM	> 1000 nM	> 1000 nM	100 to 1000 nM
CCC(=O)N1CCC(c2ccc(Nc3cc(NCc4ccccc4)c(C(N)=O)cn3)cc2)CC1 [Example 198, 4-(benzylamino)-6-(4-(1-propionylpiperidin-4-yl)phenylamino)nicotinamide]	> 1000 nM	100 to 1000 nM	1 to 10 nM	100 to 1000 nM
N#CCCc1ccc(Nc2cc(NCc3ccccc3)c(C(N)=O)cn2)cc1 [Example 386]	100 to 1000 nM	100 to 1000 nM	1 to 10 nM	100 to 1000 nM
CC(=O)Nc1cccc(Nc2nc(N)c(C(N)=O)cc2F)c1 [Example 21, 6-(3-acetamidophenylamino)-2-amino-5-fluoronicotinamide]	> 1000 nM	> 1000 nM	> 1000 nM	> 1000 nM
CC(=O)N1CCC[C@H](CNc2cc(Nc3ccc(C(=O)N(C)C)c(C)c3)ncc2C(N)=O)C1 [Example 443]	> 1000 nM	100 to 1000 nM	1 to 10 nM	100 to 1000 nM
CC(=O)N1CCN(c2ccc(Nc3cc(NCc4ccc5c(c4)OCO5)c(C(N)=O)cn3)cc2)CC1 [Example 254, 6-(4-(4-acetylpiperazin-1-yl)phenylamino)-4-(benzo[d][1,3]dioxol-5-ylmethylamino)nicotinamide]	> 1000 nM	100 to 1000 nM	10 to 100 nM	> 1000 nM
NC(=O)c1cc(F)c(Nc2cccc(-n3nccn3)c2)nc1N [Example 24, 6-(3-(2H-1,2,3-triazol-2-yl)phenylamino)-2-amino-5-fluoronicotinamide]	> 1000 nM	> 1000 nM	> 1000 nM	> 1000 nM
Cc1cc(Nc2cc(NCc3cncc(F)c3)c(C(N)=O)cn2)ccc1C(=O)N(C)C [Example 297]	100 to 1000 nM	10 to 100 nM	1 to 10 nM	100 to 1000 nM
CCC(=O)N1CCC(c2ccc(Nc3cc(NCc4cncc(F)c4)c(C(N)=O)cn3)cc2)CC1 [Example 188, 4-((5-fluoropyridin-3-yl)methylamino)-6-(4-(1-propionylpiperidin-4-yl)phenylamino)nicotinamide]	100 to 1000 nM	10 to 100 nM	1 to 10 nM	100 to 1000 nM
CC(=O)N1CCN(c2ccc(Nc3cc(NCC4CCC4)c(C(N)=O)cn3)cc2)CC1 [Example 243, 6-(4-(4-acetylpiperazin-1-yl)phenylamino)-4-(cyclobutylmethylamino)nicotinamide]	100 to 1000 nM	100 to 1000 nM	10 to 100 nM	10 to 100 nM
NC(=O)c1cc(F)c(Nc2cccc(-n3nccn3)c2)nc1NCc1ccccc1 [Example 23, 6-(3-(2H-1,2,3-triazol-2-yl)phenylamino)-2-(benzylamino)-5-fluoronicotinamide]	> 1000 nM	> 1000 nM	> 1000 nM	> 1000 nM
NC(=O)c1cnc(Nc2ccc(C3CCOCC3)cc2)cc1NCc1cccc(F)c1 [Example 143, 4-(3-fluorobenzylamino)-6-(4-(tetrahydro-2H-pyran-4-yl)phenylamino)nicotinamide]	> 1000 nM	> 1000 nM	10 to 100 nM	> 1000 nM
NC(=O)c1cnc(Nc2ccc(Cl)cc2)cc1NCc1ccccc1 [Example 13, 4-(benzylamino)-6-(4-chlorophenylamino)nicotinamide]	> 1000 nM	> 1000 nM	100 to 1000 nM	> 1000 nM
CC(=O)N1CCN(c2ccc(Nc3cc(NC(C)C)c(C(N)=O)cn3)cc2)CC1 [Example 234, 6-(4-(4-acetylpiperazin-1-yl)phenylamino)-4-(isopropylamino)nicotinamide]	> 1000 nM	> 1000 nM	100 to 1000 nM	100 to 1000 nM
Cc1cc(Nc2cc(NCc3ccccc3)c(C(N)=O)cn2)ccc1C(=O)N1CC=CC1 [Example 451, 4-(benzylamino)-6-(4-(2,5-dihydro-1H-pyrrole-1-carbonyl)-3-methylphenylamino)nicotinamide]	100 to 1000 nM	10 to 100 nM	1 to 10 nM	100 to 1000 nM
Cc1cc(Nc2cc(NCc3ccccc3)c(C(N)=O)cn2)ccc1C(=O)N1CCC1 [Example 448, 6-(4-(azetidine-1-carbonyl)-3-methylphenylamino)-4-(benzylamino)nicotinamide]	100 to 1000 nM	10 to 100 nM	1 to 10 nM	10 to 100 nM
Cc1cccc(Nc2cc(Nc3ccc(OCCN4CCCC4)cc3)ncc2C(N)=O)c1 [Example 14, 4-(3-toluidino)-6-(4-(2-(pyrrolidin-1-yl)ethoxy)phenylamino)nicotinamide]	> 1000 nM	100 to 1000 nM	100 to 1000 nM	100 to 1000 nM
Cc1cc(Nc2cc(NCc3ccccc3)c(C(N)=O)cn2)ccc1C(=O)N1CCCC1 [Example 446, 4-(benzylamino)-6-(3-methyl-4-(pyrrolidine-1-carbonyl)phenylamino)nicotinamide]	100 to 1000 nM	10 to 100 nM	1 to 10 nM	100 to 1000 nM
CS(=O)(=O)N1CCN(c2ccc(Nc3cc(NC4(c5ccccc5)CC4)c(C(N)=O)cn3)cc2)CC1 [Example 364, 6-(4-(4-(methylsufonly)piperazin-1-yl)phenylamino)-4-(1-phenylcyclopropylamino)nicotinamide]	> 1000 nM	100 to 1000 nM	10 to 100 nM	> 1000 nM
NC(=O)c1cnc(Nc2ccc(N3CCOCC3)cc2)c(Cl)c1NCc1cccc(F)c1 [Example 377, 5-chloro-4-(3-fluorobenzylamino)-6-(4-morpholinophenylamino)nicotinamide]	> 1000 nM	> 1000 nM	100 to 1000 nM	> 1000 nM
CC(=O)Nc1cccc(Nc2nc(NCc3ccccc3)c(C(N)=O)cc2F)c1 [Example 19, 6-(3-acetamidophenylamino)-2-(benzylamino)-5-fluoronicotinamide]	> 1000 nM	> 1000 nM	> 1000 nM	> 1000 nM
Cc1cc(Nc2cc(NCc3ccccc3)c(C(N)=O)cn2)ccc1C(=O)N(C)C1CC1 [Example 450, 4-(benzylamino)-6-(4-(cyclopropyl(methyl)carbamoyl)-3-methylphenylamino)nicotinamide]	100 to 1000 nM	100 to 1000 nM	1 to 10 nM	10 to 100 nM
